Assay results from publication PMC11435058, “Synthesis of New Thiazole-Privileged Chalcones as Tubulin Polymerization Inhibitors with Potential Anticancer Activities” (Pharmaceuticals, 2024).
Like-named read-outs stand apart in the source and are kept apart here.

How the values were obtained:
MDA-MB-468 = test: NCI-60 anticancer screen (SRB; single dose and five doses); format: cell-based, human; conditions: for activity at 10 µM: 48 h, MDA-MB-468, dose of 10 μM, read-out: Growth Percentage
Procedure, shortened: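 Readout was sulforhodamine B staining, read spectrophotometrically as percent growth against untreated controls. This followed a 48 h exposure to one 10μM dose across roughly 60 human tumor lines of the NCI screen.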

[1] = tested on: 60 human tumor cell lines panel; test: NCI-60 anticancer screen, whole panel (means and ranges over the cell lines); format: cell-based; conditions: for activity at 10 µM: Homo sapiens, 48 h
HL-60(TB) = test: NCI-60 anticancer screen (SRB; single dose and five doses); conditions: Homo sapiens; for activity at 10 µM: HL-60, 48 h, read-out: Growth Percentage
K-562 = test: as above; conditions: Homo sapiens; for activity at 10 µM: K562, 48 h, read-out: Growth Percentage
MOLT-4 = test: as above; conditions: Homo sapiens; for activity at 10 µM: MOLT-4, 48 h, read-out: Growth Percentage
EKVX = test: as above; conditions: Homo sapiens; for activity at 10 µM: 48 h, read-out: Growth Percentage
HOP-92 = test: as above; conditions: Homo sapiens; for activity at 10 µM: HOP-92, 48 h, read-out: Growth Percentage
COLO 205 = test: as above; conditions: Homo sapiens; for activity at 10 µM: COLO 205, 48 h, read-out: Growth Percentage
HCT-116 = test: as above; conditions: Homo sapiens; for activity at 10 µM: HCT-116, 48 h, read-out: Growth Percentage
HT29 = test: as above; conditions: Homo sapiens; for activity at 10 µM: HT-29, 48 h, read-out: Growth Percentage
KM12 = test: as above; conditions: Homo sapiens; for activity at 10 µM: KM12, 48 h, read-out: Growth Percentage
LOX IMVI = test: as above; conditions: Homo sapiens; for activity at 10 µM: 48 h, read-out: Growth Percentage
SK-MEL-28 = test: as above; conditions: Homo sapiens; for activity at 10 µM: SK-MEL-28, 48 h, read-out: Growth Percentage
SK-MEL-5 = test: as above; conditions: Homo sapiens; for activity at 10 µM: SK-MEL-5, 48 h, read-out: Growth Percentage
UACC-257 = test: as above; conditions: Homo sapiens; for activity at 10 µM: UACC-257, 48 h, read-out: Growth Percentage
UACC-62 = test: as above; conditions: Homo sapiens; for activity at 10 µM: UACC-62, 48 h, read-out: Growth Percentage
OVCAR-5 = test: as above; conditions: Homo sapiens; for activity at 10 µM: OVCAR-5, 48 h, read-out: Growth Percentage
NCI/ADR-RES = test: as above; conditions: Homo sapiens; for activity at 10 µM: 48 h, read-out: Growth Percentage
A498 = test: as above; conditions: Homo sapiens; for activity at 10 µM: A498, 48 h, read-out: Growth Percentage, A498, dose of 10 μM
ACHN = test: as above; conditions: Homo sapiens; for activity at 10 µM: 48 h, read-out: Growth Percentage
PC-3 = test: as above; conditions: Homo sapiens; for activity at 10 µM: PC-3, 48 h, read-out: Growth Percentage
DU-145 = test: as above; conditions: Homo sapiens; for activity at 10 µM: DU-145, 48 h, read-out: Growth Percentage
MCF7 = test: as above; conditions: Homo sapiens; for activity at 10 µM: MCF7, 48 h, read-out: Growth Percentage
T-47D = test: as above; conditions: Homo sapiens, T47D; for activity at 10 µM: 48 h, read-out: Growth Percentage
CCRF-CEM = test: NCI-60 anticancer screen (SRB; single dose 10 μM and five doses); conditions: Homo sapiens; for activity at 10 µM: 48 h, read-out: Growth Percentage
[2] = mean over the tested cell lines, dose of 10 μM, read-out: Mean growth percentage
[3] = five doses, mean graph midpoint over all cell lines

## Cc1ccc(/C=C/C(=O)c2sc(=S)[nH]c2C)cc1 [2j, (E)-1-(4-Methyl-2-Thioxo-2,3-Dihydrothiazol-5-yl)-3-(p-Tolyl)Prop-2-En-1-One]
MDA-MB-468; Homo sapiens
  activity at 10 µM: 11.8%
[1]; read-out: growth percentages against most of the tested cells (lowest to highest)
  activity at 10 µM: 11.8 to 131%
[1]; [2]
  activity at 10 µM: 63.3%
HL-60(TB)
  activity at 10 µM: 61%
K-562
  activity at 10 µM: 34.2%
MOLT-4
  activity at 10 µM: 68.8%
EKVX
  activity at 10 µM: 55.5%
HOP-92
  activity at 10 µM: 98%
COLO 205
  activity at 10 µM: 122%
HCT-116
  activity at 10 µM: 46.7%
HT29
  activity at 10 µM: 98.7%
KM12
  activity at 10 µM: 29.8%
LOX IMVI
  activity at 10 µM: 31.2%
SK-MEL-28
  activity at 10 µM: 92.8%
SK-MEL-5
  activity at 10 µM: 56.1%
UACC-257
  activity at 10 µM: 80.1%
UACC-62
  activity at 10 µM: 59.4%
OVCAR-5
  activity at 10 µM: 138%
NCI/ADR-RES
  activity at 10 µM: 31%
A498
  activity at 10 µM: 131%
ACHN
  activity at 10 µM: 71.2%
PC-3
  activity at 10 µM: 74.8%
DU-145
  activity at 10 µM: 54.6%
MCF7
  activity at 10 µM: 28.3%
T-47D
  activity at 10 µM: 38.3%
CCRF-CEM
  activity at 10 µM: 24.6%

## Cc1[nH]c(=S)sc1C(=O)/C=C/c1ccc(Br)cc1 [2g, (E)-3-(4-Bromophenyl)-1-(4-Methyl-2-Thioxo-2,3-Dihydrothiazol-5-yl)Prop-2-En-1-One]
MDA-MB-468; Homo sapiens
  activity at 10 µM: -4.75%
MDA-MB-468; Homo sapiens, MDA-MB-468, Breast Cancer, five dose
  GI50: 1.79 µM
MDA-MB-468; Homo sapiens, MDA-MB-468, Breast Cancer, five dose, read-out: LC50 (the source's name)
  CC50: 27.2 µM
MDA-MB-468; MDA-MB-468, Breast Cancer, five dose
  TGI: 6.77 µM
[1]; [2]
  activity at 10 µM: 34.2%
[1]; range over the cell lines, dose of 10 μM, read-out: growth percentages against most of the tested cells (lowest to highest)
  activity at 10 µM: -34.1 to 109%
[1]; [3]
  Log10GI50 _MID: -5.31 Molar
  Log10LC50 _MID: -4.3 Molar
  Log10TGI _MID: -4.75 Molar
HL-60(TB); HL-60
  GI50: 1.94 µM
HL-60(TB)
  activity at 10 µM: 13.2%
HL-60(TB); HL-60, read-out: LC50
  CC50: > 100 µM
HL-60(TB); HL-60, read-out: TGI
  IC (TGI): 9.92 µM
K-562; K562
  GI50: 2.73 µM
K-562
  activity at 10 µM: 13.6%
K-562; K562, read-out: LC50
  CC50: > 100 µM
K-562; K562, read-out: TGI
  IC (TGI): > 100 µM
MOLT-4; MOLT-4
  GI50: 3.57 µM
MOLT-4
  activity at 10 µM: 30.2%
MOLT-4; MOLT-4, read-out: LC50
  CC50: > 100 µM
MOLT-4; MOLT-4, read-out: TGI
  IC (TGI): 36.6 µM
EKVX
  GI50: 10.6 µM
  activity at 10 µM: 62.9%
EKVX; read-out: LC50
  CC50: 51 µM
EKVX; read-out: TGI
  IC (TGI): 23.3 µM
HOP-92; HOP-92
  GI50: 6.44 µM
HOP-92
  activity at 10 µM: 67.1%
HOP-92; HOP-92, read-out: LC50
  CC50: 58.8 µM
HOP-92; HOP-92, read-out: TGI
  IC (TGI): 22.5 µM
COLO 205; COLO 205
  GI50: 13.9 µM
COLO 205
  activity at 10 µM: 90%
COLO 205; COLO 205, read-out: LC50
  CC50: 80 µM
COLO 205; COLO 205, read-out: TGI
  IC (TGI): 33.3 µM
HCT-116; HCT-116
  GI50: 3.82 µM
HCT-116
  activity at 10 µM: 16.6%
HCT-116; HCT-116, read-out: LC50
  CC50: 40.9 µM
HCT-116; HCT-116, read-out: TGI
  IC (TGI): 13.1 µM
HT29; HT-29
  GI50: 5.09 µM
HT29
  activity at 10 µM: 76.3%
HT29; HT-29, read-out: LC50
  CC50: 57.8 µM
HT29; HT-29, read-out: TGI
  IC (TGI): 19.3 µM
KM12; KM12
  GI50: 3.27 µM
KM12
  activity at 10 µM: 1.17%
KM12; KM12, read-out: LC50
  CC50: 35.9 µM
KM12; KM12, read-out: TGI
  IC (TGI): 11 µM
LOX IMVI
  GI50: 2.8 µM
  activity at 10 µM: -5.17%
LOX IMVI; read-out: LC50
  CC50: 33.7 µM
LOX IMVI; read-out: TGI
  IC (TGI): 10.2 µM
SK-MEL-28; SK-MEL-28
  GI50: 11.9 µM
SK-MEL-28
  activity at 10 µM: 64.2%
SK-MEL-28; SK-MEL-28, read-out: LC50
  CC50: 50.2 µM
SK-MEL-28; SK-MEL-28, read-out: TGI
  IC (TGI): 24.5 µM
SK-MEL-5; SK-MEL-5
  GI50: 5.82 µM
SK-MEL-5
  activity at 10 µM: 48.8%
SK-MEL-5; SK-MEL-5, read-out: LC50
  CC50: 43 µM
SK-MEL-5; SK-MEL-5, read-out: TGI
  IC (TGI): 18.4 µM
UACC-257; UACC-257
  GI50: 11.3 µM
UACC-257
  activity at 10 µM: 69.1%
UACC-257; UACC-257, read-out: LC50
  CC50: 51.9 µM
UACC-257; UACC-257, read-out: TGI
  IC (TGI): 24.2 µM
UACC-62; UACC-62
  GI50: 5.17 µM
UACC-62
  activity at 10 µM: 46.8%
UACC-62; UACC-62, read-out: TGI
  IC (TGI): 18.6 µM
OVCAR-5; OVCAR-5
  GI50: 15.4 µM
OVCAR-5
  activity at 10 µM: 116%
OVCAR-5; OVCAR-5, read-out: LC50
  CC50: 57.3 µM
OVCAR-5; OVCAR-5, read-out: TGI
  IC (TGI): 29.7 µM
NCI/ADR-RES
  GI50: 6.04 µM
  activity at 10 µM: -13.9%
NCI/ADR-RES; read-out: LC50
  CC50: 73.4 µM
NCI/ADR-RES; read-out: TGI
  IC (TGI): 23.4 µM
A498; A498
  GI50: 13.5 µM
A498
  activity at 10 µM: 109%
A498; A498, read-out: LC50
  CC50: 51.8 µM
A498; A498, read-out: TGI
  IC (TGI): 26.5 µM
ACHN
  GI50: 7.67 µM
  activity at 10 µM: 55%
ACHN; read-out: LC50
  CC50: 45.4 µM
ACHN; read-out: TGI
  IC (TGI): 20.3 µM
PC-3; PC-3
  GI50: 4.68 µM
PC-3
  activity at 10 µM: 48.8%
PC-3; PC-3, read-out: LC50
  CC50: > 100 µM
PC-3; PC-3, read-out: TGI
  IC (TGI): 26 µM
DU-145; DU-145
  GI50: 3.52 µM
DU-145
  activity at 10 µM: 23.9%
DU-145; DU-145, read-out: LC50
  CC50: 35.3 µM
DU-145; DU-145, read-out: TGI
  IC (TGI): 12 µM
MCF7; MCF7
  GI50: 2.57 µM
MCF7
  activity at 10 µM: 10.5%
MCF7; MCF7, read-out: LC50
  CC50: 38.7 µM
MCF7; MCF7, read-out: TGI
  IC (TGI): 10.6 µM
T-47D
  GI50: 2.77 µM
  activity at 10 µM: 29%
T-47D; read-out: LC50
  CC50: 61.7 µM
T-47D; read-out: TGI
  IC (TGI): 11.8 µM
CCRF-CEM
  GI50: 3.06 µM
  activity at 10 µM: -11%
CCRF-CEM; read-out: TGI
  IC (TGI): 61.5 µM
